{
  "source": "paper PMC5684613",
  "about": "(BioMed Research International, 2017)",
  "key": {"everted gut sac": {"system": "everted gut sac", "test": "In vitro permeation study by everted gut sac method", "format": "in vitro ADME, albino Wistar rats", "details": "after 2 h, serosal fluid, 1 mg/ml DRV outside", "protocol": "(§1) The tissue was continuously aerated (oxygenated) with the aid of an electrical aerator. Intestinal segments of 4 cm were cut and ligated with nylon thread at one end and carefully everted on the glass rod. The everted gut sacs were filled with 500 μl of Tyrode solution and ligated at the other end and then placed inside the test tube containing 15 mL of the test solution continuously bubbled with atmospheric air at 15–20 bubbles per min separately. Test tubes were maintained at temperature 37 ± 0.5°C on water bath. The test solution outside the sac was termed as mucosal fluid, and the solution inside the sac was termed as serosal fluid."}, "[1]": {"test": "In vitro permeation study by everted gut sac method", "format": "in vitro ADME, albino Wistar rats", "details": "male, albino Wistar, rat, pH 7.4; mucosal to serosal, n = 3; read-out: Apparent permeability coefficient mean ± SD", "protocol": "as §1"}, "[2]": {"test": "Phase solubility study of DRV in aqueous carrier solutions"}, "[3]": {"test": "Dissolution studies in FaSSIF and FeSSIF media", "format": "physicochemical", "details": "n = 3", "protocol": "These two biorelevant media, FaSSIF and FeSSIF, were developed to simulate the condition of the intestine in the fasted and fed states.\nBlank FaSSIF was prepared by dissolving 6.186 g NaCl, 4.47 g NaH2PO4, and 0.348 g NaOH in 900 ml of distilled water and the pH was adjusted to 6.5 by using 1 N NaOH or HCl using pH meter. The volume was made up to 1000 ml using distilled water.\nBlank FaSSIF medium (500 ml) was taken and 2.240 g SIF powder was added to it and this solution was magnetically stirred until the powder completely dissolved to obtain a clear micellar solution. The volume was made up to 1000 ml using the buffer. The solution was allowed to stand for 2 h; it becomes slightly opalescent and thereafter used. A volume of 500 ml is recommended for dissolution for simulating fasted state condition\nBlank FeSSIF was prepared by dissolving 8.65 g glacial acetic acid, 11.874 g NaCl, and 4.04 g NaOH in 900 ml of distilled water and the pH was adjusted to 5.0 by using 1 N NaOH or HCl using pH meter. The volume was made up to 1000 ml using distilled water.\nBlank FeSSIF medium (500 ml) was taken and 11.20 g SIF powder was added to it and this solution was magnetically stirred until the powder completely dissolved to obtain a clear micellar solution. The volume was made up to 1000 ml using the buffer and thereafter used. For simulating fed state condition 1 L dissolution fluid is recommended."}, "[4]": {"test": "In vitro dissolution study, USP II paddle, acetate buffer pH 4.5", "format": "physicochemical", "details": "acetate buffer pH 4.5, after 90 min, n = 3", "protocol": "Dissolution studies were performed using a USP II Paddle dissolution apparatus (Distek, USA). The prepared SDs were filled in 00 size capsules and placed in Japanese sinkers. The sinkers were then placed in dissolution vessels containing 900 ml of acetate buffer pH 4.5, at 75 rpm and temperature 37 ± 0.5°C. Samples (5 ml) were collected periodically at 15, 30, 45, 60, and 90 min, filtered through a 0.45 μm PVDF filter and replaced with a fresh dissolution medium (5 ml). The concentrations were analyzed at 264 nm by UV spectrophotometer."}, "[5]": {"test": "Oral pharmacokinetic study, fasted and fed state", "details": "for K el / AUC(0-t) / AUC / Cmax: oral; for K el / AUC(0-t) / AUC: 70 mg/kg DRV; for AUC(0-t): AUC0-t; for AUC: AUC0-α; for Cmax: C max, 70 mg/kg DRV (8 mg/kg Ritonavir)"}, "[6]": {"details": "cited from earlier work"}, "[7]": {"set-up": "method as in Kim et al. [32]", "details": "simultaneous administration of curcumin, rats; ref Kim et al. [32]; cited from earlier work"}, "[8]": {"set-up": "method as in Varma and Panchagnula [30]", "details": "ref Varma and Panchagnula [30], cited from earlier work"}, "[9]": {"details": "male, albino Wistar, rat, in vivo, po, 70 mg/kg, Group A (fasted)"}, "[10]": {"details": "male, albino Wistar, rat, in vivo, po, 70 mg/kg, Group B (fed)"}},
  "note": "Like-named read-outs stand apart in the source and are kept apart here.",
  "data": [
    {"compound": "CC(C)CN(C[C@@H](O)[C@H](Cc1ccccc1)NC(=O)O[C@H]1CO[C@H]2OCC[C@H]21)S(=O)(=O)c1ccc(N)cc1", "note": "[DRV, Darunavir]", "values": [
      {"measurement": "concentration of the drug inside the sac", "setting": "everted gut sac", "result": "451480 ± 4020", "unit": "ng/mL"},
      {"measurement": "Papp at 120 min, 1 mg/ml", "setting": "[1]", "result": "0.828 ± 0.12", "unit": "×10⁻⁶ cm/s"},
      {"measurement": "solubility at 72 h", "setting": "[2]", "result": 150, "unit": "µg/mL"},
      {"measurement": "Cumulative % drug release (±SD) in FaSSIF", "setting": "[3]; after 30 min", "result": "13.8 ± 0.239", "unit": "%"},
      {"measurement": "Cumulative % drug release (±SD) in FaSSIF", "setting": "[3]; after 60 min", "result": "25.7 ± 0.512", "unit": "%"},
      {"measurement": "Cumulative % drug release (±SD) in FaSSIF", "setting": "[3]; after 90 min", "result": "31.2 ± 0.425", "unit": "%"},
      {"measurement": "Cumulative % drug release (±SD)", "setting": "[4]", "result": 30.9, "unit": "%"},
      {"measurement": "K el", "setting": "[5]; Group A (fasted)", "result": "0.211 ± 0.002"},
      {"measurement": "K el", "setting": "[5]; Group B (fed)", "result": "0.228 ± 0.003"},
      {"measurement": "Tmax", "setting": "[5]; male, albino Wistar, rat, in vivo, po, 70 mg/kg", "result": 1, "unit": "h"},
      {"measurement": "AUC(0-t)", "setting": "[5]; [9]", "result": 116, "unit": "ng·h/mL"},
      {"measurement": "AUC(0-t)", "setting": "[5]; [10]", "result": 258, "unit": "ng·h/mL"},
      {"measurement": "AUC", "setting": "[5]; [9]", "result": 117, "unit": "ng·h/mL"},
      {"measurement": "AUC", "setting": "[5]; [10]", "result": 259, "unit": "ng·h/mL"},
      {"measurement": "Cmax", "setting": "[5]; [9]", "result": "2860 ± 366", "unit": "ng/mL"},
      {"measurement": "Cmax", "setting": "[5]; [10]", "result": "5870 ± 565", "unit": "ng/mL"},
      {"measurement": "solubility in water", "setting": "[6]", "result": 150, "unit": "µg/mL"}
    ]},
    {"compound": "CC(C)(C)NC(=O)[C@@H]1C[C@@H]2CCCC[C@@H]2CN1C[C@@H](O)[C@H](Cc1ccccc1)NC(=O)[C@H](CC(N)=O)NC(=O)c1ccc2ccccc2n1", "note": "[Saquinavir]", "values": [
      {"measurement": "increase of oral exposure", "setting": "[7]", "result": 2.7, "unit": "fold"}
    ]},
    {"compound": "CC(=O)O[C@H]1C(=O)[C@@]2(C)[C@H]([C@H](OC(=O)c3ccccc3)[C@]3(O)C[C@H](OC(=O)[C@H](O)[C@@H](NC(=O)c4ccccc4)c4ccccc4)C(C)=C1C3(C)C)[C@]1(OC(C)=O)CO[C@@H]1C[C@@H]2O", "note": "[paclitaxel]", "values": [
      {"measurement": "Intrinsic permeability", "setting": "[8]; in the presence of 1 mg/ml TPGS", "result": 22, "unit": "×10⁻⁶ cm/s"},
      {"measurement": "Intrinsic permeability", "setting": "[8]; without TPGS", "result": 8, "unit": "×10⁻⁶ cm/s"}
    ]}
  ]
}
